Assay [1] concerns the target 26S proteasome regulatory subunit 6B (Homo sapiens, UniProt P43686).
Assay [2] addresses T1, DNA replication licensing factor MCM4 (Homo sapiens, UniProt P33991).
T1 sequence (P33991 whole entry): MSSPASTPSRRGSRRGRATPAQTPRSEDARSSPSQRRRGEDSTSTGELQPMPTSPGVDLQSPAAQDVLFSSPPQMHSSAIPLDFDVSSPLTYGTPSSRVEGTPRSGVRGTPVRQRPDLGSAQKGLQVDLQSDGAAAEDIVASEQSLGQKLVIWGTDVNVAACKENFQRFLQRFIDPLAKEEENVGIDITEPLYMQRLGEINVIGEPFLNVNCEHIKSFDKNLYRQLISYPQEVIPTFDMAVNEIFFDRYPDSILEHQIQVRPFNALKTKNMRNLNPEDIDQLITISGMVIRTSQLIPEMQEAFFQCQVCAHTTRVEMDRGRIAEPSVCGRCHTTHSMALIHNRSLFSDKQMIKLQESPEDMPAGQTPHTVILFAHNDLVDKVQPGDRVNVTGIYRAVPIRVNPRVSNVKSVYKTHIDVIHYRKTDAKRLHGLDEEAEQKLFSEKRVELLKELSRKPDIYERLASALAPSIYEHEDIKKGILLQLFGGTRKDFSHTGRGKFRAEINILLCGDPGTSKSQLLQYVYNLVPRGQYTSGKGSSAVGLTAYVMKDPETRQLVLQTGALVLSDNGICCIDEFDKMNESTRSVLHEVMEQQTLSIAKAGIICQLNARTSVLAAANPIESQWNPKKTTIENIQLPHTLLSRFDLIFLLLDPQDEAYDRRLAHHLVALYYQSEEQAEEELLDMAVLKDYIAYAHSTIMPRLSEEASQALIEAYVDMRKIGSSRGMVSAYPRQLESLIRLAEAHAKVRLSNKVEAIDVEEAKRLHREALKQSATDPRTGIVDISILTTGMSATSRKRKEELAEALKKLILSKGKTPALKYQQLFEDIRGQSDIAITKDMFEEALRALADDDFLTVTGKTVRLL

The target in assay [3] is T2, Interleukin-1 receptor-associated kinase 3 (Homo sapiens, UniProt Q9Y616).
T2 sequence (Q9Y616 whole entry): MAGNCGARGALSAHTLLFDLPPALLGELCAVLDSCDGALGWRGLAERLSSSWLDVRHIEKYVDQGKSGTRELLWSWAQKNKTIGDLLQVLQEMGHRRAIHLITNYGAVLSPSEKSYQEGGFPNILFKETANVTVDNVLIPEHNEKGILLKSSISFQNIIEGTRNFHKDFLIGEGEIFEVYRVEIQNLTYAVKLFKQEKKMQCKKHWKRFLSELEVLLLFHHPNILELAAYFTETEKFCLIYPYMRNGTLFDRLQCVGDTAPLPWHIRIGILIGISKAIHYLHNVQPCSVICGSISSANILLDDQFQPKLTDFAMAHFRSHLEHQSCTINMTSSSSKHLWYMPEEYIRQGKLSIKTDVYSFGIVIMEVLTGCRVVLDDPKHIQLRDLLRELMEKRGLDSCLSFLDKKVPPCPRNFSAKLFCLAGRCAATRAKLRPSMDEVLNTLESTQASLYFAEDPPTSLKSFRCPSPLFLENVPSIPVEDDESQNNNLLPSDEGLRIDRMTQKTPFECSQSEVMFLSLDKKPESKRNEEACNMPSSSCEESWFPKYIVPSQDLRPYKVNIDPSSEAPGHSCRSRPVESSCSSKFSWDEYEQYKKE

Assay [4] deals with T3, RNA cytidine acetyltransferase (Homo sapiens, UniProt Q9H0A0).
T3 sequence (Q9H0A0 whole entry): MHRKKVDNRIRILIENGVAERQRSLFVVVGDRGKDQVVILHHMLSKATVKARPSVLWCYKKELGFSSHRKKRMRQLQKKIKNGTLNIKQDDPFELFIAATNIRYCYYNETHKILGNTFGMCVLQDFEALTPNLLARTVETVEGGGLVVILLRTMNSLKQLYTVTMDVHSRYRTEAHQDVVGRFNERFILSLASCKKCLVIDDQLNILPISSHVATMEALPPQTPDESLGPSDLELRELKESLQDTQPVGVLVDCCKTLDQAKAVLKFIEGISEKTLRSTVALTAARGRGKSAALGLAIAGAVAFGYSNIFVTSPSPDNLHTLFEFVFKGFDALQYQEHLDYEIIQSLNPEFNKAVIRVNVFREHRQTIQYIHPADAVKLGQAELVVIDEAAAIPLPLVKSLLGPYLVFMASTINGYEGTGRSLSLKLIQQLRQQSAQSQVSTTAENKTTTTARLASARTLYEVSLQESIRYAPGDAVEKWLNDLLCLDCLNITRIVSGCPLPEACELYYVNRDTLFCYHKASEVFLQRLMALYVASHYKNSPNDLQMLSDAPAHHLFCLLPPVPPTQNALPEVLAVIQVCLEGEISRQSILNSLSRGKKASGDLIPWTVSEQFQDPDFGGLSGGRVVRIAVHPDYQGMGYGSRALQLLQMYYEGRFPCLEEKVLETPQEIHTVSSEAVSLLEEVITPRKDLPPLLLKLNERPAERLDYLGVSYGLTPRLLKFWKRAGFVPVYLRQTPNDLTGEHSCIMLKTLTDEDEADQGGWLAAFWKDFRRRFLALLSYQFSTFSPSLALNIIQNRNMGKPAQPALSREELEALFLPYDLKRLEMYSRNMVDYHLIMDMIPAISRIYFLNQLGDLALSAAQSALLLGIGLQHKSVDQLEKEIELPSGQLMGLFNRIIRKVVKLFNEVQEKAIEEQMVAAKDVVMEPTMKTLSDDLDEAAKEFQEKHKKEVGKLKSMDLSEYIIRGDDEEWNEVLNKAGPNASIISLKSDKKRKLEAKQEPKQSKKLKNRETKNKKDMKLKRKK

Assay [5] addresses Casein kinase I isoform delta (Homo sapiens, UniProt P48730).
For assay [6], the target named is T4, Ras-related protein Rab-10 (Homo sapiens, UniProt P61026).
T4 sequence (P61026 whole entry): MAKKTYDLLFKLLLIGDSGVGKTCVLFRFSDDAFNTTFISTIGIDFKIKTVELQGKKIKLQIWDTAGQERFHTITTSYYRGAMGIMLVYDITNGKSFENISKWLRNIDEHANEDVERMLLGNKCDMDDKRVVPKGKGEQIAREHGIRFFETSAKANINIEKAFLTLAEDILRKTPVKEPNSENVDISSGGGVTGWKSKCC

For assay [7], the target named is Tyrosine-protein kinase Lck (Homo sapiens, UniProt P06239).

This note sets out measurements from ChEMBL document CHEMBL3991601, “The target landscape of clinical kinase drugs” (Science, 2017).

Activity calls are given as the source filed them.
Further: in the data inactive means no Kd found up to 30 µM.

Casein kinase I isoform delta, sequence (P48730 whole entry, canonical isoform): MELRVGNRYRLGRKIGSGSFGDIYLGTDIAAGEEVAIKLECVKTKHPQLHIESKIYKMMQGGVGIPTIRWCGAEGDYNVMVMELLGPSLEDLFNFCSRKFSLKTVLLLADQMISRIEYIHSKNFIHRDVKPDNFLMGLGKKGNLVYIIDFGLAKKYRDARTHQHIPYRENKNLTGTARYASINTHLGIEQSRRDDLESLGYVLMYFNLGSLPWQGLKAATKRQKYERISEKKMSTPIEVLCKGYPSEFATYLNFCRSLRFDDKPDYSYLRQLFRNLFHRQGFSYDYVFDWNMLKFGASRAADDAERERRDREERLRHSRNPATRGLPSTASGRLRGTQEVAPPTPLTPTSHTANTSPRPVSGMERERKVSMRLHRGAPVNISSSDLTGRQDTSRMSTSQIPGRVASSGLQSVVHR
Tyrosine-protein kinase Lck, sequence (P06239 whole entry): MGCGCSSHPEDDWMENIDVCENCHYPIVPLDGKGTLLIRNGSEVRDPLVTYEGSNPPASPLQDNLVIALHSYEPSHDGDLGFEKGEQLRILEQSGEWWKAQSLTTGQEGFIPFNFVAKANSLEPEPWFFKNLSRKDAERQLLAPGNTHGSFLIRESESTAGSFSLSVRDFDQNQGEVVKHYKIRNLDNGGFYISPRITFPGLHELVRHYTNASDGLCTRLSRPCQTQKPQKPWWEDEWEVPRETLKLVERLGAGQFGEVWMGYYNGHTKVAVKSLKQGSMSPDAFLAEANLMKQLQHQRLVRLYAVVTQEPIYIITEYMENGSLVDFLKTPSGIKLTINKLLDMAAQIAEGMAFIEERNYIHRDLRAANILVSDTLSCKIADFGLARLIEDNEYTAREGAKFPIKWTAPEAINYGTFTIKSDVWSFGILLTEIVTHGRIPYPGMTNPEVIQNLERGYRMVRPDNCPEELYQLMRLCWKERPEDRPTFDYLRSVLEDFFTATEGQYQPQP
26S proteasome regulatory subunit 6B, sequence (P43686 whole entry): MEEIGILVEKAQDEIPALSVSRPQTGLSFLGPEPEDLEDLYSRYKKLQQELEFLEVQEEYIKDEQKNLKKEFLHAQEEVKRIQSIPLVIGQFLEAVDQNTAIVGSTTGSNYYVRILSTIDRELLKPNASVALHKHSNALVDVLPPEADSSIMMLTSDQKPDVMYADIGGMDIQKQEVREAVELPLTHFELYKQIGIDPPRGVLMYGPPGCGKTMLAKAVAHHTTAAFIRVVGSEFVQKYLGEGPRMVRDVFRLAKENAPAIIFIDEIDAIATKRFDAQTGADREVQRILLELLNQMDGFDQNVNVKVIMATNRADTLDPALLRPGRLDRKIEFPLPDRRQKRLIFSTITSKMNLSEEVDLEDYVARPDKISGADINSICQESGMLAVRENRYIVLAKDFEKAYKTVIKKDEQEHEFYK

With `Cc1cc2c(F)c(Oc3ncnn4cc(OC[C@@H](C)OC(=O)[C@H](C)N)c(C)c34)ccc2[nH]1` [BRIVANIB ALANINATE], the Kd in assay [1], in assay [2], in assay [3], in assay [4], in assay [5] and in assay [6] was > 30 µM (inactive) throughout. Moreover, the Kd – broadly, the free concentration of one partner at which half of the binding sites on the other are occupied at equilibrium, for simple one-to-one binding – in assay [7] is > 30 µM (inactive).
For the molecule `CNC(=O)c1ccc(C)c(-n2c(C)cc(OCc3ccc(F)cc3F)c(Br)c2=O)c1` [PH-797804], the Kd in assay [1], in assay [2], in assay [3], in assay [4], in assay [5] and in assay [6] was > 30 µM (inactive) throughout. In assay [7], the Kd was > 30 µM (inactive).
`CNC(=O)c1cc(Oc2ccc(NC(=O)Nc3ccc(Cl)c(C(F)(F)F)c3)c(F)c2)ccn1` [REGORAFENIB]: the Kd in assay [1], in assay [2], in assay [3], in assay [4], in assay [5] and in assay [6] was > 30 µM (inactive) throughout. Also, the Kd in assay [7] was > 30 µM (inactive).
`COC(=O)N[C@@H](C)CNc1nccc(-c2cn(C(C)C)nc2-c2cc(Cl)cc(NS(C)(=O)=O)c2F)n1` [ENCORAFENIB]: the Kd in assay [1], in assay [2], in assay [3], in assay [4], in assay [5] and in assay [6] was > 30 µM (inactive) in each case. For the same molecule, in assay [7], the Kd is > 30 µM (inactive).
Regarding `Cc1c(F)cc(C(=O)NC2CC2)cc1-c1ccc(C(=O)NCC(C)(C)C)cn1` [LOSMAPIMOD], the Kd in assay [1], in assay [2], in assay [3], in assay [4], in assay [5] and in assay [6] was > 30 µM (inactive) in each case. In assay [7], the Kd was > 30 µM (inactive).
Turning to `Cc1cc(-c2cc(O)ccc2Cl)cc2nnc(Nc3ccc(OCCN4CCCC4)cc3)nc12`, the Kd in assay [1], in assay [2], in assay [3], in assay [4], in assay [5] and in assay [6] was > 30 µM (inactive) throughout. Further, in assay [7], the Kd was 0.002 µM (active).
With `C=CC(=O)N1CCC(Oc2cc3c(Nc4ccc(Cl)c(Cl)c4F)ncnc3cc2OC)CC1` [POZIOTINIB], the Kd in assay [1], in assay [2], in assay [3], in assay [4], in assay [5] and in assay [6] was > 30 µM (inactive) in each case. In assay [7], the Kd was > 30 µM (inactive).
For the molecule `O=C1NC(=O)/C(=C/c2ccc3nccc(-c4ccncc4)c3c2)S1` [GSK-1059615], the Kd in assay [1] is > 30 µM (inactive); in assay [2], > 30 µM (inactive); in assay [3], 8.67 µM (active); in assay [4] it was > 30 µM (inactive); in assay [5] it was 21.5 µM (active); in assay [6] it was > 30 µM (inactive). Also, the Kd in assay [7] was > 30 µM (inactive).
For the molecule `CC[C@@H]1C(=O)N(C)c2cnc(Nc3ccc(C(=O)N[C@H]4CC[C@H](N5CCN(CC6CC6)CC5)CC4)cc3OC)nc2N1C(C)C` [VOLASERTIB], the Kd in assay [1], in assay [2], in assay [3], in assay [4], in assay [5] and in assay [6] was > 30 µM (inactive) in each case. Besides, the Kd in assay [7] is > 30 µM (inactive).
With `O=c1sn(-c2cccc3ccccc23)c(=O)n1Cc1ccccc1` [TIDEGLUSIB], the Kd in assay [1], in assay [2], in assay [3], in assay [4], in assay [5] and in assay [6] was > 30 µM (inactive) throughout. For the same molecule, the Kd in assay [7] is > 30 µM (inactive).
As to `CO[C@H]1C[C@@H]2CC[C@@H](C)[C@@](O)(O2)C(=O)C(=O)N2CCCC[C@H]2C(=O)O[C@H]([C@H](C)C[C@@H]2CC[C@@H](OCCO)[C@H](OC)C2)CC(=O)[C@H](C)/C=C(\C)[C@@H](O)[C@@H](OC)C(=O)[C@H](C)C[C@H](C)/C=C/C=C/C=C/1C` [EVEROLIMUS], the Kd in assay [1], in assay [2], in assay [3], in assay [4], in assay [5] and in assay [6] was > 30 µM (inactive) in each case. Further, the Kd in assay [7] was > 30 µM (inactive).
`CN(C)C(=O)c1cc2cnc(Nc3ccc(N4CCNCC4)cn3)nc2n1C1CCCC1` [RIBOCICLIB]: the Kd in assay [1], in assay [2], in assay [3], in assay [4], in assay [5] and in assay [6] was > 30 µM (inactive) throughout. For the same molecule, in assay [7], the Kd was > 30 µM (inactive).
For `CC(C)Nc1cc(-c2c[nH]c(C(=O)N[C@H](CO)c3cccc(Cl)c3)c2)c(Cl)cn1` [ULIXERTINIB], the Kd in assay [1], in assay [2], in assay [3], in assay [4], in assay [5] and in assay [6] was > 30 µM (inactive) each time. The Kd in assay [7] was > 30 µM (inactive).
